Test results from US11597724B2, “Herbicidally active 3-phenylisoxazoline-5-carboxamides of tetrahydro and dihydrofuran carboxylic acids and esters” (Bayer Aktiengesellschaft, priority 2017, dated 2023).

What was measured:
Type in all cases: in vivo
Alopecurus myosuroides = test: Pre-emergence herbicidal activity against ALOMY; details: dosage 80 g/ha, scored visually after about 3 weeks vs untreated controls (100% = plants have died, 0% = like control plants); for pest or weed control at 80 g/ha: Alopecurus myosuroides, 504 h
From the text: (§1) 1. Pre-Emergence Herbicidal Action and Crop Plant Compatibility Seeds of monocotyledonous and dicotyledonous weed plants and crop plants are placed in plastic or wood fiber pots and covered with soil. The compounds of the invention, formulated in the form of wettable powders (WP) or as emulsion concentrates (EC), are then applied onto the surface of the covering soil as aqueous suspension or emulsion with addition of 0.5% additive at a water application rate of 600 l/ha (converted). After the treatment, the pots are placed in a greenhouse and kept under good growth conditions for the trial plants. After about 3 weeks, the effect of the preparations is scored visually in comparison with untreated controls as percentages. For example, 100% activity=the plants have died, 0% activity=like control plants. ABUTH: Abutilon theophrasti ALOMY: Alopecurus myosuroides

Amaranthus retroflexus [1] = test: Pre-emergence herbicidal activity against AMARE; details: dosage 80 g/ha; for pest or weed control at 80 g/ha: Amaranthus retroflexus, 504 h
Method in brief: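 Seeds sown in pots, covered with soil; WP or EC formulations sprayed onto soil surface as aqueous suspension/emulsion with 0.5% additive at 600 l/ha water. Pots kept in greenhouse ~3 weeks, then effect scored visually versus untreated controls as % (100% = plants dead, 0% = like control).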

Polygonum convolvulus [2] = test: Pre-emergence herbicidal activity against POLCO; details: dosage 80 g/ha; for pest or weed control at 80 g/ha: Fallopia convolvulus, 504 h
From the text: as §1, with “POLCO: Polygonum convolvulus SETVI: Setaria viridis” for “ABUTH: Abutilon theophrasti ALOMY: Alopecurus myosuroides”

Stellaria media = test: Pre-emergence herbicidal activity against STEME; details: dosage 80 g/ha; for pest or weed control at 80 g/ha: Stellaria media, 504 h
Method in brief: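 Weed seeds sown in pots and covered with soil, then WP or EC formulations sprayed onto the soil surface as aqueous suspension/emulsion with 0.5% additive at 600 l/ha water. Kept in greenhouse; visual percent effect versus untreated controls scored after about 3 weeks (100% = plants dead).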

Avena fatua = test: Post-emergence herbicidal activity against AVEFA; details: dosage 320 g/ha, rated about 3 weeks after treatment; for pest or weed control at 320 g/ha: Avena fatua, 504 h
Method in brief: (§2)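 Greenhouse pots of sandy loam; plants sprayed at one-leaf stage, 2 to 3 weeks after sowing, with WP or EC formulations in water plus 0.5% additive at 600 l/ha. Activity rated visually after about 3 weeks against untreated controls (100% = plants dead, 0% = like control).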

Amaranthus retroflexus [3] = test: Post-emergence herbicidal activity against AMARE; details: dosage 320 g/ha, rated about 3 weeks after treatment; for pest or weed control at 320 g/ha: Amaranthus retroflexus, 504 h
Method in brief: as §2

Polygonum convolvulus [4] = test: Post-emergence herbicidal activity against POLCO; details: dosage 320 g/ha, rated about 3 weeks after treatment; for pest or weed control at 320 g/ha: Fallopia convolvulus, 504 h
Method in brief: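 Greenhouse weeds in sandy loam were sprayed at the one-leaf stage, 2–3 weeks after sowing, with WP or EC formulations plus 0.5% additive at 600 l/ha water. About 3 weeks later, damage was rated visually against untreated controls, where 100% means plants dead and 0% means like control.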

Viola tricolor = test: Post-emergence herbicidal activity against VIOTR; details: dosage 320 g/ha, rated about 3 weeks after treatment; for pest or weed control at 320 g/ha: Viola tricolor, 504 h
Method in brief: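 Greenhouse plants in sandy loam treated at one-leaf stage, 2 to 3 weeks after sowing, by spraying WP or EC formulations with 0.5% additive at 600 l/ha water. Activity rated visually after about 3 weeks versus untreated controls, 100% = plants dead, 0% = like control.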

| SMILES | pest or weed control at 80 g/ha (Alopecurus myosuroides) | pest or weed control at 80 g/ha (Amaranthus retroflexus [1]) | pest or weed control at 80 g/ha (Polygonum convolvulus [2]) | pest or weed control at 80 g/ha (Stellaria media) | pest or weed control at 320 g/ha (Avena fatua) | pest or weed control at 320 g/ha (Amaranthus retroflexus [3]) | pest or weed control at 320 g/ha (Polygonum convolvulus [4]) | pest or weed control at 320 g/ha (Viola tricolor) | Pre-emergence herbicidal activity against ALOMY in % (Alopecurus myosuroides) | Pre-emergence herbicidal activity against AMARE in % (Amaranthus retroflexus [1]) | Pre-emergence herbicidal activity against POLCO in % (Polygonum convolvulus [2]) | Pre-emergence herbicidal activity against STEME in % (Stellaria media) | Post-emergence herbicidal activity against AVEFA in % (Avena fatua) | Post-emergence herbicidal activity against AMARE in % (Amaranthus retroflexus [3]) | Post-emergence herbicidal activity against POLCO in % (Polygonum convolvulus [4]) | Post-emergence herbicidal activity against VIOTR in % (Viola tricolor) |
| --- | --- | --- | --- | --- | --- | --- | --- | --- | --- | --- | --- | --- | --- | --- | --- | --- |
| C=C[C@]1(C(=O)N[C@H]2CO[C@@H](C(=O)OC)C2)CC(c2cc(F)cc(F)c2)=NO1 (mixture of isomers) [I-10, methyl cis-4-[[(5S)-3-(3,5-difluorophenyl)-5-vinyl-4H-isoxazole-5-carbonyl]amino]tetrahydrofuran-2-carboxylate] | 100% | 90% | 100% | 100% | 100% | 80% | 80% | 80% | – | – | – | – | – | – | – | – |
| C=C[C@]1(C(=O)N[C@H]2CO[C@@H](C(=O)OC(C)C)C2)CC(c2cc(F)cc(F)c2)=NO1 (mixture of isomers) [I-36, isopropyl cis-4-[[(5S)-3-(3,5-difluorophenyl)-5-vinyl-4H-isoxazole-5-carbonyl]amino]tetrahydrofuran-2-carboxylate] | 100% | 100% | 100% | 100% | 90% | 90% | 80% | 90% | – | – | – | – | – | – | – | – |
| CC1(C(=O)NC2COC(C(=O)O)C2)CC(c2cc(F)cc(F)c2)=NO1 (mixture of isomers) [I-41] | – | – | – | – | – | – | – | – | 100% | 90% | 90% | 100% | 100% | 100% | 90% | 80% |
| CC(C)(C)OC(=O)C1CC(NC(=O)C2(C)CC(c3cc(F)cc(F)c3)=NO2)CO1 (mixture of isomers) [I-42] | – | – | – | – | – | – | – | – | 100% | 100% | 100% | 100% | 100% | 80% | 80% | 90% |
| CCOC(=O)C1CC(NC(=O)C2(C)CC(c3cc(F)cc(F)c3)=NO2)CO1 (mixture of isomers) [I-43] | – | – | – | – | – | – | – | – | 100% | 90% | 100% | 100% | 100% | 80% | 80% | 90% |
| CC1(C(=O)NC2COC(C(=O)OCc3ccccc3)C2)CC(c2cc(F)cc(F)c2)=NO1 (mixture of isomers) [I-45] | – | – | – | – | – | – | – | – | 100% | 100% | 100% | 100% | 100% | 80% | 80% | 90% |
| COC(=O)C1CC(NC(=O)C2(C)CC(c3cc(F)cc(F)c3)=NO2)CO1 (mixture of isomers) [I-48] | – | – | – | – | – | – | – | – | 100% | 100% | 100% | 100% | 80% | 80% | 80% | 80% |
| C=CC1(C(=O)N[C@H]2CO[C@@H](C(=O)O)C2)CC(c2cc(F)cc(F)c2)=NO1 (relative stereo) [I-21, cis-4-[[3-(3,5-difluorophenyl)-5-vinyl-4H-isoxazole-5-carbonyl]amino]tetrahydrofuran-2-carboxylic acid] | 100% | 100% | 90% | 100% | 90% | 100% | – | 80% | – | – | – | – | – | – | – | – |
| C=C[C@]1(C(=O)N[C@H]2CO[C@@H](C(=O)OC)C2)CC(c2cc(F)cc(F)c2)=NO1 (single isomer, unassigned) [I-11] | – | – | – | – | 100% | 90% | 90% | 90% | 100% | 100% | 100% | 100% | – | – | – | – |
| C=C[C@]1(C(=O)N[C@H]2CO[C@@H](C(=O)OC)C2)CC(c2cc(F)cc(F)c2)=NO1 (single isomer, unassigned) [I-12] | 100% | 100% | 100% | 100% | – | – | – | – | – | – | – | – | 100% | 90% | 90% | 100% |
| CC(C)OC(=O)C1CC(NC(=O)C2(C)CC(c3cc(F)cc(F)c3)=NO2)CO1 (centres unmarked) [I-44] | – | – | – | – | – | – | – | – | 100% | 90% | 100% | 90% | 100% | 80% | 80% | 90% |
| COC(=O)C1=C[C@@H](NC(=O)C2(C)CC(c3cccc(F)c3)=NO2)CO1 (stereo partly drawn) [I-46, methyl (3R)-3-[[3-(3-fluorophenyl)-5-methyl-4H-isoxazole-5-carbonyl]amino]-2,3-dihydrofuran-5-carboxylate] | 100% | 90% | 90% | 100% | 100% | 80% | 80% | 90% | – | – | – | – | – | – | – | – |
